# Measured values: patent US10738076B2, “Lanosterol prodrug compound and preparation method therefor and use thereof” (ZHONGSHAN OPHTHALMIC CENTER, SUN YAT-SEN UNIVERSITY, priority 2017, dated 2020)
# Entries after “also recorded” stand apart in the source; their conditions may differ. Like-named read-outs stand apart in the source and are kept apart here.
# Columns and labels:
# [1] = ophthalmic drug penetration and drug conversion to lanosterol in vivo (aqueous humor concentration after eye drops); design: species or system New Zealand white rabbits
# Description: In this study, New Zealand white rabbits (body weight was more than 2 kg, age was more than 12 weeks) were used as experimental animals. Each compound was studied with two New Zealand white rabbits. Each rabbit was instilled with […] eye drops in each eyes three eyes were used to collect aqueous humor samples and one eye was used as a backup. […] After the eye drops was dripped into the rabbit's eyes, the anterior aqueous humor was collected at 0.5, 2, 4 and 6 hours after administration. The volume of each sample was not more than 50 μL. Each animal was given mild anesthesia before collecting samples. Three samples were collected at every time point. The collected aqueous humor samples were stored in dry ice immediately after collection or stored in a refrigerator at −80±10° C. After the sample collection, the animals were euthanized. The concentration of the compound in each sample was determined using a triple quadrupole mass spectrometer (API 4000).
# [2] = system: sodium selenite-induced neonatal New Zealand rabbit cataract model; test: sodium selenite-induced cataract model, slit lamp observation; format: in vivo, neonatal New Zealand rabbits; details: eye drops right eye 3 times every day, 42 days, compared with pre-dose
# Description: (§1) P7 days old neonatal New Zealand rabbits, normal grade, and 5 young rabbits per litter were breast-fed with a mother rabbit.
# (§2) The experimental young rabbits were randomly divided into 5 groups with 5 rabbits per group.
# (§3) 1) Normal control group (NC): in the P10 day, young rabbits were injected subcutaneously with 0.25 mL physiological saline from the neck, and were not administered after the P15 day.
# (§4) 2) Model control group (MC): in the P10 day, young rabbits were injected subcutaneously with sodium selenite solution (in physiological saline) at 20 μmol/kg body weight, and after the P15 day, drug-free blank eyes drops was dripped into the right eye 3 times every day for 42 days.
# as §4, with “3) Positive” for “2) Model”, “(PC):” for “(MC):”, “kary uni eye” for “drug-free blank eyes”, “drops (Santen Pharmaceutical Co., Ltd in Japan)” for “drops”
# 4) Lanosterol eye drops treatment group (LT): in the P10 day, young rabbits were injected subcutaneously with sodium selenite solution (in physiological saline) at 20 μmol/kg body weight, and after the P15 day, lanosterol eye drops was dripped into the right eye 3 times every day for 42 days. […]
# [3] = system: sodium selenite-induced neonatal New Zealand rabbit cataract model; test: sodium selenite-induced cataract model, lens transparency test in vitro; format: in vivo, neonatal New Zealand rabbits; details: after 42 days of administration
# Description: as §1, §2, §3, §4
# as §4, with “3) Positive” for “2) Model”, “(PC):” for “(MC):”, “kary uni eye” for “drug-free blank eyes”, “drops (Santen Pharmaceutical Co., Ltd in Japan)” for “drops”
# (§5) 4) Lanosterol eye drops treatment group (LT): in the P10 day, young rabbits were injected subcutaneously with sodium selenite solution (in physiological saline) at 20 μmol/kg body weight, and after the P15 day, lanosterol eye drops was dripped into the right eye 3 times every day for 42 days.
# as §5, with “5)” for “4)”, “Lanosterol prodrug 026” for “Lanosterol”, “(026):” for “(LT):”, “lanosterol prodrug 026” for “lanosterol”
# 2) Lens transparency test in vitro: on the last day, the animal's eyeball was dissected, the lens containing the capsule was completely separated, and the lens was placed on a grid paper (2.12×2.12 mm).
# [4] = system: lens glutathione peroxidase (GSH-PX) activity; test: sodium selenite-induced cataract model, lens GSH-PX activity assay; format: in vivo, neonatal New Zealand rabbits; details: after 42 days of administration; for effect on lens GSH-PX activity compared to the other treatment groups: 026 vs kary uni p<0.01
# Description: as §1, §2, §3, §4
# as §4, with “3) Positive” for “2) Model”, “(PC):” for “(MC):”, “kary uni eye” for “drug-free blank eyes”, “drops (Santen Pharmaceutical Co., Ltd in Japan)” for “drops”
# as §5
# as §5, with “5)” for “4)”, “Lanosterol prodrug 026” for “Lanosterol”, “(026):” for “(LT):”, “lanosterol prodrug 026” for “lanosterol”
# (§6) 3) Glutathione peroxidase (GSH-PX) activity assay: GSH-PX activity of the isolated rabbit lens in each group was determined by the method provided in the specification of GSH-PX activity detection kit (Nanjing Jiancheng Bioengineering Institute). The experimental data was analyzed by One-Way ANOVA with SPSS statistical software. The LSD method was used to compare the groups, and the statistical difference level was p<0.05.
# [5] = system: ultraviolet-induced New Zealand rabbit cataract model; test: ultraviolet-induced cataract model, slit lamp observation; format: in vivo, New Zealand rabbits; details: ultraviolet (313 nm, 24 hours) model, eye drops right eye 3 times every day, 42 days, compared with pre-dose
# Description: (§7) Adult New Zealand rabbits 2.0-2.5 kg, normal grade, male and female, a total of 25.
# (§8) The experimental rabbits were randomly divided into 5 groups with 5 rabbits per group.
# (§9) 1) Normal control group (NC): normal feeding, no drug administration.
# (§10) 2) Model control group (MC): 313 nm UV irradiation for 24 hours to make model, then drug-free blank eye drops was dripped to the right eye 3 times every day for 42 days.
# (§11) 3) Positive control group (PC): 313 nm UV irradiation for 24 hours to make model, then kary uni eye drops (Santen Pharmaceutical Co., Ltd in Japan) was dripped into the right eye 3 times every day for 42 days.
# (§12) 4) Lanosterol eye drops treatment group (LT): 313 nm UV irradiation for 24 hours to make model, then lanosterol eye drops was dripped into the right eye 3 times every day for 42 days.
# (§13) 5) Lanosterol prodrug 026 eye drops treatment group (026): 313 nm UV irradiation for 24 hours to make model, then the lanosterol prodrug 026 eye drops was dripped into the right eye 3 times every day for 42 days.
# [6] = system: ultraviolet-induced New Zealand rabbit cataract model; test: ultraviolet-induced cataract model, lens transparency test in vitro; format: in vivo, New Zealand rabbits; details: after 42 days of administration
# Description: as §7, §8, §9, §10, §11, §12, §13
# 2) lens transparency test in vitro: on the last day, the animal's eyeball was dissected, the lens containing the capsule was completely separated, and the lens was placed on a grid paper (2.12×2.12 mm).
# [7] = system: lens glutathione peroxidase (GSH-PX) activity; test: ultraviolet-induced cataract model, lens GSH-PX activity assay; format: in vivo, New Zealand rabbits; details: after 42 days of administration; for effect on lens GSH-PX activity compared to the other treatment groups: 026 vs kary uni p<0.05
# Description: as §7, §8, §9, §10, §11, §12, §13, §6
# [8] = system: pre-formed lens protein aggregates; details: in vitro at the cellular level; background, published in Nature; cited from earlier work
# cataract = details: background, published in Nature; cited from earlier work
# [9] = 6 hours after 250 nmol dripped into each eye of New Zealand white rabbit
# [10] = in vivo, 250 nmol per eye, 0.5 hour after 250 nmol dripped into each eye of New Zealand white rabbit, read-out: Average concentration of the dripped compound itself in the aqueous humor
# [11] = in vivo, 250 nmol per eye, 2 hours after 250 nmol dripped into each eye of New Zealand white rabbit, read-out: Average concentration of the dripped compound itself in the aqueous humor
# [12] = 0.5 hour after 250 nmol dripped into each eye of New Zealand white rabbit
# [13] = 2 hours after 250 nmol dripped into each eye of New Zealand white rabbit
# [14] = 4 hours after 250 nmol dripped into each eye of New Zealand white rabbit
# [15] = listed as lanosterol prodrug 026
# [16] = 026 and kary uni p<0.01, lanosterol p>0.05, listed as lanosterol prodrug 026
# [17] = 026 and kary uni p<0.01, lanosterol p>0.05
smiles,measurement,setting,value
COC(=O)[C@H](C)NP(=O)(Oc1ccccc1)O[C@H]1CC[C@]2(C)C3=C(CCC2C1(C)C)[C@]1(C)CC[C@H]([C@H](C)CCC=C(C)C)[C@@]1(C)CC3 (stereo partly shown) [Compound 1],Average concentration of Lanosterol in the aqueous humor after the prodrug was dripped,[1]; 0.5 hour after 250 nmol prodrug dripped into each eye of New Zealand white rabbit,BQL
same,Average concentration of Lanosterol in the aqueous humor after the prodrug was dripped,[1]; 2 hours after 250 nmol prodrug dripped into each eye of New Zealand white rabbit,BQL
same,Average concentration of the dripped compound itself in the aqueous humor,[1]; [9],BQL
same,concentration at 0.5 h,[1]; [10],7.5 nM
same,concentration at 2 h,[1]; [11],8.6 nM
CC(C)=CCC[C@@H](C)[C@H]1CC[C@@]2(C)C3=C(CC[C@]12C)[C@@]1(C)CC[C@H](OC(=O)c2ccc([N+](=O)[O-])cc2)C(C)(C)C1CC3 (stereo partly shown) [Compound 4],Average concentration of the dripped compound itself in the aqueous humor,[1]; [12],BQL
same,Average concentration of the dripped compound itself in the aqueous humor,[1]; [13],BQL
same,Average concentration of the dripped compound itself in the aqueous humor,[1]; [14],BQL
same,Average concentration of the dripped compound itself in the aqueous humor,[1]; [9],BQL
CC(C)=CCC[C@@H](C)[C@H]1CC[C@@]2(C)C3=C(CC[C@]12C)[C@@]1(C)CC[C@H](OC(=O)c2ccccc2O)C(C)(C)C1CC3 (stereo partly shown) [Compound 8],Average concentration of the dripped compound itself in the aqueous humor,[1]; [9],BQL
same,concentration at 0.5 h,[1]; [10],41 nM
same,concentration at 2 h,[1]; [11],33.3 nM
same,concentration at 4 h,"[1]; in vivo, 250 nmol per eye, 4 hours after 250 nmol dripped into each eye of New Zealand white rabbit, read-out: Average concentration of the dripped compound itself in the aqueous humor",25.5 nM
same,"cataract symptoms, slit lamp observation",[2]; [15],cataract symptoms were significantly reduced; also recorded: could alleviate the cataract symptoms
same,lens transparency of the right eye compared to the MC group,[3],significantly higher than that of the MC group
same,lens transparency of the right eye compared to the NC group,[3],still lower than that of the NC group
same,lens transparency of the administered right eye compared to the left eye (self-control),[3]; [15],significantly higher than that of the left eye; also recorded: improve lens transparency
same,lens GSH-PX activity compared to the MC group,[4]; [16],could increase the GSH-PX activity of the lens; also recorded: improve lens transparency and lens GSH-PX activity
same,effect on lens GSH-PX activity compared to the other treatment groups,[4],better than that of kary uni
same,"cataract symptoms, slit lamp observation",[5]; [15],cataract symptoms were significantly reduced; also recorded: could alleviate the cataract symptoms
same,lens transparency of the right eye compared to the MC group,[6],significantly higher than that of the MC group
same,lens transparency of the right eye compared to the NC group,[6],still lower than that of the NC group
same,lens transparency of the administered right eye compared to the left eye (self-control),[6]; [15],significantly higher than that of the left eye; also recorded: improve lens transparency
same,lens GSH-PX activity compared to the MC group,[7]; [16],could increase the GSH-PX activity of the lens; also recorded: improve lens transparency and lens GSH-PX activity
same,effect on lens GSH-PX activity compared to the other treatment groups,[7],better than that of kary uni
CC(C)=CCC[C@@H](C)[C@H]1CC[C@@]2(C)C3=C(CC[C@]12C)[C@@]1(C)CC[C@H](OC(=O)c2ccno2)C(C)(C)C1CC3 (stereo partly shown) [Compound 9],Average concentration of the dripped compound itself in the aqueous humor,[1]; [12],BQL
same,Average concentration of the dripped compound itself in the aqueous humor,[1]; [13],BQL
CC(C)=CCC[C@@H](C)[C@H]1CC[C@@]2(C)C3=C(CC[C@]12C)[C@@]1(C)CC[C@H](OC(=O)c2ncon2)C(C)(C)C1CC3 (stereo partly shown) [Compound 10],Average concentration of the dripped compound itself in the aqueous humor,[1]; [12],BQL
same,concentration at 2 h,[1]; [11],37.9 nM
CC(=O)Oc1ccccc1C(=O)O[C@H]1CC[C@]2(C)C3=C(CCC2C1(C)C)[C@]1(C)CC[C@H]([C@H](C)CCC=C(C)C)[C@@]1(C)CC3 (stereo partly shown) [Compound 12],AUC (exposure amount) of the dripped compound itself in the aqueous humor,[1]; 250 nmol dripped into each eye of New Zealand white rabbit,BQL
same,Average concentration of the dripped compound itself in the aqueous humor,[1]; [14],BQL
same,Average concentration of the dripped compound itself in the aqueous humor,[1]; [9],BQL
same,concentration at 0.5 h,[1]; [10],60 nM
same,concentration at 2 h,[1]; [11],15.6 nM
CC(C)=CCC[C@@H](C)[C@H]1CC[C@@]2(C)C3=C(CC[C@]12C)[C@@]1(C)CC[C@H](O)C(C)(C)[C@@H]1CC3 [Lanosterol],concentration at 0.5 h,"[1]; aqueous humor, topical, 250 nmol per eye, 0.5 hour after 250 nmol dripped into each eye of New Zealand white rabbit, read-out: Average concentration of the dripped compound itself in the aqueous humor",106 nM
same,concentration at 2 h,"[1]; aqueous humor, topical, 250 nmol per eye, 2 hours after 250 nmol dripped into each eye of New Zealand white rabbit, read-out: Average concentration of the dripped compound itself in the aqueous humor",496 nM
same,concentration at 4 h,"[1]; aqueous humor, topical, 250 nmol per eye, 4 hours after 250 nmol dripped into each eye of New Zealand white rabbit, read-out: Average concentration of the dripped compound itself in the aqueous humor",300 nM
same,concentration at 6 h,"[1]; aqueous humor, topical, 250 nmol per eye, 6 hours after 250 nmol dripped into each eye of New Zealand white rabbit, read-out: Average concentration of the dripped compound itself in the aqueous humor",225 nM
same,penetration into the aqueous humor / permeability,"[1]; eye drops, rabbit, in words",could penetrate into the aqueous humor
same,"cataract symptoms, slit lamp observation",[2],did not change significantly
same,lens transparency of the administered right eye compared to the left eye (self-control),[3],no significant change in lens transparency
same,lens GSH-PX activity compared to the MC group,[4]; [17],no statistical difference compared to the MC group
same,effect on lens GSH-PX activity compared to the other treatment groups,[4],significantly lower than that of 026 and kary uni
same,"cataract symptoms, slit lamp observation",[5],did not change significantly
same,lens transparency of the administered right eye compared to the left eye (self-control),[6],no significant change in lens transparency
same,lens GSH-PX activity compared to the MC group,[7]; [17],no statistical difference compared to the MC group
same,effect on lens GSH-PX activity compared to the other treatment groups,[7],significantly lower than that of 026 and kary uni
same,effect on pre-formed lens protein aggregates,[8],significantly reduce pre-formed lens protein aggregates
same,effect on cataract and lens transparency in vivo,cataract,can reverse the condition of cataract
